Patent publication US8586611B2 (priority 2005, dated 2013)

Key:
Format in all cases: in vivo
[1] = test system: Pseudoperonospora cubensis; assay: Test A: cucumber downy mildew, spray the day before inoculation (disease rating, 100 = 100% disease control)
From the text: The test compounds were first dissolved in acetone in an amount equal to 3% of the final volume and then suspended at the desired concentration (in ppm) in acetone and purified water (50/50 mix by volume) containing 250 ppm of the surfactant Trem® 014 (polyhydric alcohol esters). The resulting test suspensions were then used in tests A-E. Spraying a 200 ppm test suspension to the point of run-off on the test plants was the equivalent of a rate of 500 g/ha.
The test suspension was sprayed to the point of run-off on cucumber seedlings. The following day the seedlings were inoculated with a spore suspension of Pseudoperonospora cubensis (the causal agent of cucumber downy mildew) and incubated in a saturated atmosphere at 20° C. for 24 h, and then moved to a growth chamber at 20° C. for 6 days, after which disease ratings were made.
Results for Tests A-F are given in Table A. In the table, a rating of 100 indicates 100% disease control and a rating of 0 indicates no disease control (relative to the controls). A dash (-) indicates no test results.

[2] = test system: Plasmopara viticola; assay: Test B: grape downy mildew, spray 24 h after inoculation (disease rating, 100 = 100% disease control)
Summary of the method: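 Grape seedlings were inoculated with Plasmopara viticola and held 24 h saturated at 20 °C, then sprayed to run-off with compound suspension (acetone/water with 250 ppm Trem 014; 200 ppm ≈ 500 g/ha). After 5 days at 20 °C and 24 h saturation, disease was rated from 0 to 100% control versus untreated.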

[3] = test system: Phytophthora infestans; assay: whole plant or invertebrate; details: tomato late blight
[4] = test system: Erysiphe graminis f. sp. tritici; assay: Test E: wheat powdery mildew, spray the day before inoculation (disease rating, 100 = 100% disease control)
Summary of the method: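 Wheat seedlings sprayed to run-off with compound suspended in acetone/water 50/50 with 250 ppm Trem 014 (200 ppm equivalent to 500 g/ha); inoculated next day with Erysiphe graminis f. sp. tritici spore dust. Kept 7 days at 20° C, then rated 0–100% disease control versus controls.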

[5] = test system: Phytophthora infestans; assay: whole plant or invertebrate; details: tomato late blight; spray 17 h after inoculation; tested at 40 ppm
[6] = spray the day before inoculation, compounds without asterisk (not 40 or 10 ppm)
[7] = spray 24 h after inoculation, compounds without asterisk (not 40 or 10 ppm)
[8] = sprayed the day before inoculation, unmarked compounds (no asterisk, not 40 or 10 ppm)
[9] = sprayed 24 h after inoculation, unmarked compounds (no asterisk, not 40 or 10 ppm)
[10] = sprayed the day before inoculation, 7 days at 20° C., unmarked compounds (no asterisk, not 40 or 10 ppm)
[11] = spray the day before inoculation, tested at 40 ppm

Row | Compound | Test A disease rating (100 = 100% disease control, 0 = no disease control) [1, 6] [%] | Test B disease rating (100 = 100% disease control, 0 = no disease control) [2, 7] [%] | Test C disease rating (100 = 100% disease control, 0 = no disease control) [3, 6] [%] | Test E disease rating (100 = 100% disease control, 0 = no disease control) [4, 6] [%] | Test A disease rating (100 = 100% disease control, 0 = no disease control) [1, 8] | Test B disease rating (100 = 100% disease control, 0 = no disease control) [2, 9] | Test C disease rating (100 = 100% disease control, 0 = no disease control) [3, 8] | Test E disease rating (100 = 100% disease control, 0 = no disease control) [4, 10] | Test B disease rating (100 = 100% disease control, 0 = no disease control) ([2]; spray 24 h after inoculation, tested at 40 ppm) [%] | Test C disease rating (100 = 100% disease control, 0 = no disease control) [3, 11] [%] | Test D disease rating (100 = 100% disease control, 0 = no disease control) [5] [%] | Test E disease rating (100 = 100% disease control, 0 = no disease control) [4, 11] [%]
1 | N-methyl-2-[1-[[5-methyl-3-(trifluoromethyl)-1H-pyrazol-1-yl]acetyl]-4-piperidinyl]-N-[(1R)-1-phenylpropyl]-4-oxazolecarboxamide [Compound 152] | 0 | 0 | 0 | 0 | – | – | – | – | – | – | – | –
2 | C[C@H](c1ccccc1)N(C)C(=O)c1csc(C2CCN(C(=O)Cc3ccc(Cl)cc3Cl)CC2)n1 [compound 6] | 0 | 28 | 0 | 41 | – | – | – | – | – | – | – | –
3 | 2-[1-[(2,5-dimethylphenyl)acetyl]-4-piperidinyl]-N-methyl-N-[(1R)-1,2,3,4-tetrahydro-1-naphthalenyl]-4-oxazolecarboxamide [Compound 153] | 82 | 28 | 0 | 0 | – | – | – | – | – | – | – | –
4 | C[C@@H](NC(=O)c1csc(C2CCN(C(=O)Cc3ccccc3Cl)CC2)n1)c1ccccc1 [compound 261] | – | – | – | – | 93 | 0 | 31 | 21 | – | – | – | –
5 | N-methyl-2-[1-[[5-methyl-3-(trifluoromethyl)-1H-pyrazol-1-yl]acetyl]-4-piperidinyl]-N-[(1R)-1-phenylethyl]-4-thiazolecarboxamide [Compound 70] | 0 | 0 | 33 | 0 | – | – | – | – | – | – | – | –
6 | O=C(NCc1ccccc1)c1csc(C2CCN(C(=O)Cc3ccccc3Cl)CC2)n1 [compound 262] | – | – | – | – | 94 | 6 | 52 | 0 | – | – | – | –
7 | N-methyl-2-[1-[[5-methyl-3-(trifluoromethyl)-1H-pyrazol-1-yl]acetyl]-4-piperidinyl]-N-[(1R,4R)-1,2,3,4-tetrahydro-4-hydroxy-1-naphthalenyl]-4-thiazolecarboxamide [Compound 206] | 99 | 5 | 31 | 0 | – | – | – | – | – | – | – | –
8 | C[C@H](c1ccccc1)N(C)C(=O)c1csc(C2CCN(C(=O)Cc3ccccc3OC(F)(F)F)CC2)n1 [compound 45] | 95 | 70 | 98 | 0 | – | – | – | – | – | – | – | –
9 | N-methyl-2-[1-[[5-methyl-3-(trifluoromethyl)-1H-pyrazol-1-yl]acetyl]-4-piperidinyl]-N-[(1R,4S)-1,2,3,4-tetrahydro-4-hydroxy-1-naphthalenyl]-4-thiazolecarboxamide [Compound 191] | 97 | 17 | 90 | 0 | – | – | – | – | – | – | – | –
10 | Cc1cc(C(F)(F)F)nn1CC(=O)N1CCC(c2nc(C(=O)N(C)C3c4ccccc4CCC3(C)C)cs2)CC1 (centres unmarked) [Compound 236] | 97 | 61 | 62 | 0 | – | – | – | – | 100 | 100 | 99 | 0
